ChEMBL document CHEMBL1134864, “Synthesis and biological evaluation of 9-substituted tetracycline derivatives” (2002)
≈ marks a conversion by molar mass, not a printed value.

Legend:
Format in all cases: functional
[1] = test system: Enterococcus faecalis; assay: Minimum inhibition concentration against Enterococcus faecalis
[2] = test system: Staphylococcus aureus; assay: Minimum inhibition concentration against Methicillin resistant Staphylococcus aureus
[3] = test system: Staphylococcus aureus; assay: Minimum inhibition concentration against Staphylococcus aureus

For C[C@H]1c2ccc(-c3ccc([N+](=O)[O-])cc3)c(O)c2C(=O)C2=C(O)[C@]3(O)C(O)=C(C(N)=O)C(=O)[C@@H](N(C)C)C3[C@@H](O)C21 (stereo partly specified), the MIC [1] was 0.78 µg/mL (≈ 1.38 µM), the MIC [2] was 0.39 µg/mL (≈ 0.69 µM) and the MIC [3] was 3.12 µg/mL (≈ 5.52 µM).

In the case of C=Cc1ccc2c(c1O)C(=O)C1=C(O)[C@]3(O)C(O)=C(C(N)=O)C(=O)[C@@H](N(C)C)C3[C@@H](O)C1[C@H]2C (stereo partly specified), the MIC [1] is reported as < 0.098 µg/mL, the MIC [2] is reported as < 0.098 µg/mL and the MIC [3] is reported as 1.56 µg/mL (≈ 3.32 µM).

Work on C[C@H]1c2ccc(-c3ccc(N)cc3)c(O)c2C(=O)C2=C(O)[C@]3(O)C(O)=C(C(N)=O)C(=O)[C@@H](N(C)C)C3[C@@H](O)C21 (stereo partly specified) yielded an MIC [1] of 3.12 µg/mL (≈ 5.83 µM), an MIC [2] of 1.56 µg/mL (≈ 2.91 µM) and an MIC [3] of 3.12 µg/mL (≈ 5.83 µM).

C#Cc1ccc2c(c1O)C(=O)C1=C(O)[C@]3(O)C(O)=C(C(N)=O)C(=O)[C@@H](N(C)C)C3[C@@H](O)C1[C@H]2C (stereo partly specified) gave an MIC [1] of 0.78 µg/mL (≈ 1.67 µM), an MIC [2] of 0.39 µg/mL (≈ 0.833 µM) and an MIC [3] of 1.56 µg/mL (≈ 3.33 µM).

With C[C@H]1c2ccc(-c3ccccc3)c(O)c2C(=O)C2=C(O)[C@]3(O)C(O)=C(C(N)=O)C(=O)[C@@H](N(C)C)C3[C@@H](O)C21 (stereo partly specified) the MIC [1] was 1.56 µg/mL (≈ 3 µM), the MIC [2] was 0.78 µg/mL (≈ 1.5 µM) and the MIC [3] was 3.12 µg/mL (≈ 5.99 µM).

For C[C@H]1c2cccc(O)c2C(=O)C2=C(O)[C@]3(O)C(=O)C(C(N)=O)=C(O)[C@@H](N(C)C)[C@@H]3[C@@H](O)[C@@H]21.O [DOXYCYCLINE], the MIC [1] was 6.25 µg/mL, the MIC [2] was 6.25 µg/mL and the MIC [3] was > 50 µg/mL.

For CN(C)c1ccc(O)c2c1C[C@H]1C[C@H]3[C@H](N(C)C)C(O)=C(C(N)=O)C(=O)[C@@]3(O)C(O)=C1C2=O [MINOCYCLINE], the MIC [1] was < 0.098 µg/mL, the MIC [2] was 6.25 µg/mL (≈ 13.7 µM) and the MIC [3] was 3.12 µg/mL (≈ 6.82 µM).
